# Assay results published in patent US4159328A, “Tetrahydro-1,3,5-thiadiazin-4-one derivative” (Nihon Nohyaku Co., Ltd., priority 1977, dated 1979).
# Test system: larvae of white-backed planthopper (Sogatella furcifera Horvath)
# Assay: Test Example 2: insecticidal activity against larvae of white-backed planthopper
# Assay type: in vivo
# Settings: 168 h, 400 ppm, first-instar larvae, 25° C., seven days after treatment, read-out: Mortality
# Description: Insecticidal activity against larvae of white-backed planthopper (Sogatella furcifera Horvath).
# Testing method: Five rice seedlings of the 1.5 leaf age were dipped in a test composition of 400 ppm concentration for 30 seconds. After air-drying, the seedlings were placed in a glass tube containing 1 ml of water and infested with five first-instar larvae of white-backed planthopper. The glass tube was left standing in a constant temperature cabinet at 25° C. and seven days after the treatment, dead-and-survival was observed. Mortality was calculated from the results of 3-replication test.
row,Compound,mortality at 400 ppm [%]
1,CN=C1SCN(c2ccc(Br)cc2)C(=O)N1C [Compound 291],100
2,CCC(C)N=C1SCN(c2ccc(Cl)cc2)C(=O)N1C(C)CC (stereo not drawn) [Compound 197],90
3,CC(C)N=C1SCN(c2ccc(F)cc2)C(=O)N1C(C)C [Compound 285],100
4,Cc1cccc(N2CSC(=NC(C)C)N(C(C)C)C2=O)c1 [Compound 325],100
5,CC(C)N=C1SCN(c2cccc(Cl)c2)C(=O)N1C(C)C [Compound 220],100
6,CCC(C)N1C(=O)N(c2ccccc2C)CSC1=NC(C)(C)C (stereo not drawn) [Compound 303],100
7,COc1ccc(N2CSC(=NC(C)C)N(C(C)C)C2=O)cc1 [Compound 352],100
8,"CC(C)N=C1SCN(c2ccccc2Cl)C(=O)N1C(C)C [Compound 244, 2-Isopropylimino-3-isopropyl-5-(o-chlorophenyl)-tetrahydro-1,3,5-thiadiazin-4-one]",100
9,"CC(C)N1C(=O)N(c2ccc(Cl)cc2)CSC1=NC(C)(C)C [Compound 196, 2-t-Butylimino-3-isopropyl-5-(p-chlorophenyl)-tetrahydro-1,3,5-thiadiazin-4-one]",90
10,"CC(C)N1C(=O)N(c2ccc(F)cc2)CSC1=NC(C)(C)C [Compound 282, 2-t-butylimino-3-isopropyl 5-(p-fluorophenyl)-tetrahydro-1,3,5-thiadiazin-4-one]",100
11,"CCC(C)N1C(=O)N(c2cccc(Cl)c2)CSC1=NC(C)(C)C (stereo not drawn) [Compound 225, 2-t-Butylimino-3-s-butyl-5-(m-chlorophenyl)-tetrahydro-1,3,5-thiadiazin-4-one]",100
12,"CCc1cccc(CC)c1N1CSC(=NC(C)C)N(C(C)C)C1=O [Compound 395, 2-Isopropylimino-3-isopropyl-5-(2,6-diethylphenyl)-tetrahydro-1,3,5-thiadiazin-4-one]",90

# Test system: larvae of house mosquito (Culex pipiens pallens Coquillett)
# Assay: Test Example 6: insecticidal activity to larvae of house mosquito
# Assay type: in vivo
# Settings: 120 h
# Description: Insecticidal activity to larvae of house mosquito (Culex pipiens pallens Coquillett).
# Test method: In a 200-ml beaker, was placed together with a feed 100 ml of a test composition diluted with deionized water to 10 ppm concentration. The test composition was infested with 20 first-instar larvae of house mosquito and the beaker was covered with a sheet of Japanese paper. The beaker was kept in a constant temperature cabinet at 25° C. Five days after the treatment, the dead-and-survival was inspected to calculate the mortality.
row,Compound,mortality at 10 ppm [%]
1,CCCN1C(=O)N(c2ccc(C)cc2)CSC1=NC(C)C [Compound 314],100
2,CN=C1SCN(c2ccc(Br)cc2)C(=O)N1C [Compound 291],70
3,CCC(C)N=C1SCN(c2ccc(Cl)cc2)C(=O)N1C(C)CC (stereo not drawn) [Compound 197],100
4,CC(C)N=C1SCN(c2ccc(F)cc2)C(=O)N1C(C)C [Compound 285],100
5,Cc1cccc(N2CSC(=NC(C)C)N(C(C)C)C2=O)c1 [Compound 325],100
6,CC(C)N=C1SCN(c2cccc(Cl)c2)C(=O)N1C(C)C [Compound 220],80
7,COc1ccc(N2CSC(=NC(C)C)N(C(C)C)C2=O)cc1 [Compound 352],100
8,"CC(C)N=C1SCN(c2ccccc2Cl)C(=O)N1C(C)C [Compound 244, 2-Isopropylimino-3-isopropyl-5-(o-chlorophenyl)-tetrahydro-1,3,5-thiadiazin-4-one]",100
9,"CC(C)N1C(=O)N(c2ccc(F)cc2)CSC1=NC(C)(C)C [Compound 282, 2-t-butylimino-3-isopropyl 5-(p-fluorophenyl)-tetrahydro-1,3,5-thiadiazin-4-one]",90
10,"CCC(C)N1C(=O)N(c2cccc(Cl)c2)CSC1=NC(C)(C)C (stereo not drawn) [Compound 225, 2-t-Butylimino-3-s-butyl-5-(m-chlorophenyl)-tetrahydro-1,3,5-thiadiazin-4-one]",100
11,"CCc1cccc(CC)c1N1CSC(=NC(C)C)N(C(C)C)C1=O [Compound 395, 2-Isopropylimino-3-isopropyl-5-(2,6-diethylphenyl)-tetrahydro-1,3,5-thiadiazin-4-one]",100

# Test system: larvae of green rice leafhopper (Nephotettix cincticeps Uhler)
# Assay: Test Example 5: activity against larvae of green rice leafhopper
# Assay type: in vivo
# Settings: 168 h, 400 ppm, second-instar larvae, 25° C., seven days after treatment, read-out: Mortality
# Description: Activity against larvae of green rice leafhopper (Nephotettix cincticeps Uhler).
# Testing method: Five rice seedlings of the 1.5 leaf age were dipped in a test composition of 400 ppm concentration for 30 seconds. After air-drying, the seedlings were placed in a glass tube containing 1 ml of water and infested with five second-instar larvae of green rice leafhopper. The glass tube was left standing in a constant temperature cabinet at 25° C. Seven days after the treatment, dead-and-survivalwas inspected to calculate the mortality (3-replication test).
row,Compound,mortality at 400 ppm [%]
1,CN=C1SCN(c2ccc(Br)cc2)C(=O)N1C [Compound 291],100
2,CC(C)N=C1SCN(c2ccc(F)cc2)C(=O)N1C(C)C [Compound 285],100
3,Cc1cccc(N2CSC(=NC(C)C)N(C(C)C)C2=O)c1 [Compound 325],100
4,CC(C)N=C1SCN(c2cccc(Cl)c2)C(=O)N1C(C)C [Compound 220],100
5,CCC(C)N1C(=O)N(c2ccccc2C)CSC1=NC(C)(C)C (stereo not drawn) [Compound 303],100
6,COc1ccc(N2CSC(=NC(C)C)N(C(C)C)C2=O)cc1 [Compound 352],100
7,"CC(C)N=C1SCN(c2ccccc2Cl)C(=O)N1C(C)C [Compound 244, 2-Isopropylimino-3-isopropyl-5-(o-chlorophenyl)-tetrahydro-1,3,5-thiadiazin-4-one]",100
8,"CC(C)N1C(=O)N(c2ccc(F)cc2)CSC1=NC(C)(C)C [Compound 282, 2-t-butylimino-3-isopropyl 5-(p-fluorophenyl)-tetrahydro-1,3,5-thiadiazin-4-one]",100
9,"CCC(C)N1C(=O)N(c2cccc(Cl)c2)CSC1=NC(C)(C)C (stereo not drawn) [Compound 225, 2-t-Butylimino-3-s-butyl-5-(m-chlorophenyl)-tetrahydro-1,3,5-thiadiazin-4-one]",90
10,"CCc1cccc(CC)c1N1CSC(=NC(C)C)N(C(C)C)C1=O [Compound 395, 2-Isopropylimino-3-isopropyl-5-(2,6-diethylphenyl)-tetrahydro-1,3,5-thiadiazin-4-one]",100

# Test system: larvae of 28-spotted lady beetle (Epilachna vigintioctopunctana Fabricius)
# Assay: Test Example 8: insecticidal activity against larvae of 28-spotted lady beetle
# Assay type: in vivo
# Settings: 120 h
# Description: Insecticidal activity against larvae of 28-spotted lady beetle (Epilachna vigintioctopunctana Fabricius).
# Testing method: Leaflets of tomato grown in a greenhouse were dipped in a test composition of 100 ppm concentration for 30 seconds and after that the leaflets were dried by air. In a Petri dish covered on the bottom with a piece of filter paper, were introduced 1 ml of water and three treated tomato leaflets. After having been infested with seven second-instar larvae of 28-spotted lady beetle, the Petri dish was left standing in a constant temperature cabinet at 25° C. Five days after the treatment, the dead-and-survival was inspected to calculate the mortality (2-replication test).
row,Compound,mortality at 100 ppm [%]
1,CCCN1C(=O)N(c2ccc(C)cc2)CSC1=NC(C)C [Compound 314],100
2,CN=C1SCN(c2ccc(Br)cc2)C(=O)N1C [Compound 291],100
3,CC(C)N=C1SCN(c2ccc(F)cc2)C(=O)N1C(C)C [Compound 285],80
4,Cc1cccc(N2CSC(=NC(C)C)N(C(C)C)C2=O)c1 [Compound 325],100
5,CC(C)N=C1SCN(c2cccc(Cl)c2)C(=O)N1C(C)C [Compound 220],100
6,CCC(C)N1C(=O)N(c2ccccc2C)CSC1=NC(C)(C)C (stereo not drawn) [Compound 303],100
7,COc1ccc(N2CSC(=NC(C)C)N(C(C)C)C2=O)cc1 [Compound 352],100

# Test system: two-spotted spider mite (Tetranychus urticae Koch)
# Assay: Test Example 3: activity to two-spotted spider mite
# Assay type: in vivo
# Settings: 120 h, 1,000 ppm, 5 days after treatment
# Description: Activity to two-spotted spider mite (Tetranychus urticae Koch).
# Testing method: Two-spotted spider mites were set free on the pot-planted soybean in a greenhouse. On the next day, a test composition of 1,000 ppm concentration was sprayed over the soybean by means of a spray gun. Two days or five days after the treatment, dead-and-survival was inspected to calculate the mortality.
row,Compound,mortality at 1000 ppm [%]
1,CCCN1C(=O)N(c2ccc(C)cc2)CSC1=NC(C)C [Compound 314],100
2,CN=C1SCN(c2ccc(Br)cc2)C(=O)N1C [Compound 291],100
3,CCC(C)N=C1SCN(c2ccc(Cl)cc2)C(=O)N1C(C)CC (stereo not drawn) [Compound 197],80
4,CC(C)N=C1SCN(c2ccc(F)cc2)C(=O)N1C(C)C [Compound 285],100
5,CCC(C)N1C(=O)N(c2ccccc2C)CSC1=NC(C)(C)C (stereo not drawn) [Compound 303],80
6,"CC(C)N=C1SCN(c2ccccc2Cl)C(=O)N1C(C)C [Compound 244, 2-Isopropylimino-3-isopropyl-5-(o-chlorophenyl)-tetrahydro-1,3,5-thiadiazin-4-one]",70
7,"CC(C)N1C(=O)N(c2ccc(Cl)cc2)CSC1=NC(C)(C)C [Compound 196, 2-t-Butylimino-3-isopropyl-5-(p-chlorophenyl)-tetrahydro-1,3,5-thiadiazin-4-one]",100
8,"CC(C)N1C(=O)N(c2ccc(F)cc2)CSC1=NC(C)(C)C [Compound 282, 2-t-butylimino-3-isopropyl 5-(p-fluorophenyl)-tetrahydro-1,3,5-thiadiazin-4-one]",80
9,"CCC(C)N1C(=O)N(c2cccc(Cl)c2)CSC1=NC(C)(C)C (stereo not drawn) [Compound 225, 2-t-Butylimino-3-s-butyl-5-(m-chlorophenyl)-tetrahydro-1,3,5-thiadiazin-4-one]",100
10,"CCc1cccc(CC)c1N1CSC(=NC(C)C)N(C(C)C)C1=O [Compound 395, 2-Isopropylimino-3-isopropyl-5-(2,6-diethylphenyl)-tetrahydro-1,3,5-thiadiazin-4-one]",80

# Test system: larvae of brown planthopper (Nilaparvata lugens Stahl)
# Assay: Test Example 1: insecticidal activity against larvae of brown planthopper
# Assay type: in vivo
# Settings: 120 h, third-instar larvae, 25° C., 5 days after treatment
# Description: Insecticidal activity against larvae of brown planthopper (Nilaparvata lugens Stahl).
# Testing method: Five rice seedlings of the 1.5 leaf age were dipped in a test composition of 400 ppm concentration for 30 seconds. After air-drying, the seedlings were placed in a glass tube containing 1 ml of water and infested with five third-instar larvae of brown planthopper. The glass tube was left standing in a constant temperature cabinet at 25° C. and 5 or 7 days after the treatment, dead-and-survival was observed. Mortality was calculated from the results of 3-replication test.
row,Compound,mortality at 400 ppm [%]
1,CCCN1C(=O)N(c2ccc(C)cc2)CSC1=NC(C)C [Compound 314],100
2,CN=C1SCN(c2ccc(Br)cc2)C(=O)N1C [Compound 291],100
3,CCC(C)N=C1SCN(c2ccc(Cl)cc2)C(=O)N1C(C)CC (stereo not drawn) [Compound 197],100
4,CC(C)N=C1SCN(c2ccc(F)cc2)C(=O)N1C(C)C [Compound 285],100
5,Cc1cccc(N2CSC(=NC(C)C)N(C(C)C)C2=O)c1 [Compound 325],100
6,CC(C)N=C1SCN(c2cccc(Cl)c2)C(=O)N1C(C)C [Compound 220],100
7,CCC(C)N1C(=O)N(c2ccccc2C)CSC1=NC(C)(C)C (stereo not drawn) [Compound 303],100
8,COc1ccc(N2CSC(=NC(C)C)N(C(C)C)C2=O)cc1 [Compound 352],100
9,"CC(C)N=C1SCN(c2ccccc2Cl)C(=O)N1C(C)C [Compound 244, 2-Isopropylimino-3-isopropyl-5-(o-chlorophenyl)-tetrahydro-1,3,5-thiadiazin-4-one]",100
10,"CC(C)N1C(=O)N(c2ccc(Cl)cc2)CSC1=NC(C)(C)C [Compound 196, 2-t-Butylimino-3-isopropyl-5-(p-chlorophenyl)-tetrahydro-1,3,5-thiadiazin-4-one]",100
11,"CC(C)N1C(=O)N(c2ccc(F)cc2)CSC1=NC(C)(C)C [Compound 282, 2-t-butylimino-3-isopropyl 5-(p-fluorophenyl)-tetrahydro-1,3,5-thiadiazin-4-one]",100
12,"CCC(C)N1C(=O)N(c2cccc(Cl)c2)CSC1=NC(C)(C)C (stereo not drawn) [Compound 225, 2-t-Butylimino-3-s-butyl-5-(m-chlorophenyl)-tetrahydro-1,3,5-thiadiazin-4-one]",100
13,"CCc1cccc(CC)c1N1CSC(=NC(C)C)N(C(C)C)C1=O [Compound 395, 2-Isopropylimino-3-isopropyl-5-(2,6-diethylphenyl)-tetrahydro-1,3,5-thiadiazin-4-one]",100
